Test results: ChEMBL document CHEMBL3991943, “Pharmaceutical formulations comprising salts of a protein kinase inhibitor and methods of using same” (2013)

Assays:
[1] = Solubility of the compound in glycerol; type: physicochemical
OVCAR-3 [2] = assay: Induction of DNA damage in human OVCAR3 cells assessed as increase in gamma-H2AX levels at 10 uM in presence of topotecan; type: functional
Mus musculus = assay: Toxicity in nude mouse xenografted with human OVCAR3 cells assessed as mortality at 100 to 200 mg/kg, po qd measured on day 5,6,7,20,27 during compound dosing in presence of cisplatin dosed every 7 days for 28 days; type: organism-based; conditions: in vivo
OVCAR-3 [3] = assay: Antitumor activity against human OVCAR3 cells xenografted in athymic nude mouse assessed as tumor growth at 100 to 200 mg/kg, po qd administered for 3 days in presence of 5 mg/kg cisplatin dosed every 7 days for 28 days (reference value: 78.04 mm3/day); type: functional
A549 [4] = assay: Suppression of carboplatin induced Rad51 expression in human A549 cells at 0.71 uM after 24 hrs by probing blot analysis; type: functional; conditions: A549, 24 h
A549 [5] = assay: Suppression of carboplatin induced Rad51 expression in human A549 cells at 3.82 uM after 24 hrs by probing blot analysis; type: functional; conditions: A549, 24 h
[6] = Cmax in female rat at 5 mg/kg, iv at 5 mins; type: ADME, organism-based; set-up: dose 5 mg/kg, route intravenous; conditions: in vivo
[7] = Tmax in male rat at 5 mg/kg, iv; type: ADME, organism-based; conditions: in vivo
[8] = Tmax in rat at 25 mg/kg administered via oral gavage; type: ADME, organism-based; conditions: in vivo
Rattus norvegicus [9] = assay: Acute toxicity in Sprague-Dawley rat assessed as clinical abnormalities at 100 to 2000 mg/kg administered as single dose via oral gavage measured 1 to 72 hrs post dose; type: organism-based; conditions: in vivo
Canis familiaris [10] = assay: Acute toxicity in dog at 30 to 2000 mg/kg, po administered as single dose capsule measured over 24 hrs; type: organism-based, Canis lupus familiaris; conditions: in vivo
Canis familiaris [11] = assay: Acute toxicity in dog assessed as mortality at 30 to 2000 mg/kg, po administered as single dose capsule measured over 24 hrs; type: organism-based, Canis lupus familiaris; conditions: in vivo
Rattus norvegicus [12] = assay: Chronic toxicity in male rat assessed as hunched posture at 20 to 200 mg/kg/day, po administered for 28 days; type: organism-based; conditions: in vivo, 672 h
Rattus norvegicus [13] = assay: Chronic toxicity in female rat assessed as hunched posture at 6 to 100 mg/kg/day, po administered for 28 days; type: organism-based; conditions: in vivo, 672 h
Rattus norvegicus [14] = assay: Chronic toxicity in male rat assessed as soft feces at 20 to 200 mg/kg/day, po administered for 28 days; type: organism-based; conditions: in vivo, 672 h
Rattus norvegicus [15] = assay: Chronic toxicity in female rat assessed as sporadic occurrence of hair loss at 6 to 100 mg/kg/day, po administered for 28 days; type: organism-based; conditions: in vivo, 672 h
Rattus norvegicus [16] = assay: Chronic toxicity in female rat assessed as weight gain at 6 to 100 mg/kg/day, po administered for 28 days measured during compound dosing; type: organism-based; conditions: in vivo, 672 h
Rattus norvegicus [17] = assay: Chronic toxicity in male rat assessed as decrease in food consumption at 200 mg/kg/day, po administered for 28 days; type: organism-based; conditions: in vivo, 672 h
Rattus norvegicus [18] = assay: Chronic toxicity in female rat assessed as decrease in food consumption at 60 to 100 mg/kg/day, po administered for 28 days; type: organism-based; conditions: in vivo, 672 h
Rattus norvegicus [19] = assay: Chronic toxicity in male rat assessed as decrease in food consumption at 200 mg/kg/day, po administered for 28 days measured after cessation of dosing; type: organism-based; conditions: in vivo, 672 h
Rattus norvegicus [20] = assay: Chronic toxicity in male rat assessed as ophthalmologic changes at 200 mg/kg/day, po administered for 28 days; type: organism-based; conditions: in vivo, 672 h
Rattus norvegicus [21] = assay: Chronic toxicity in female rat assessed as hematological changes at 60 to 100 mg/kg/day, po administered for 28 days; type: organism-based; conditions: in vivo, 672 h
Rattus norvegicus [22] = assay: Chronic toxicity in male rat assessed as decrease in glucose levels at 200 mg/kg/day, po administered for 28 days; type: organism-based; conditions: in vivo, 672 h
Rattus norvegicus [23] = assay: Chronic toxicity in male rat assessed as decrease in triglyceride levels at 200 mg/kg/day, po administered for 28 days; type: organism-based; conditions: in vivo, 672 h
Rattus norvegicus [24] = assay: Chronic toxicity in male rat assessed as sporadic alterations in organ weight at 200 mg/kg/day, po administered for 28 days; type: organism-based; conditions: in vivo, 672 h
Rattus norvegicus [25] = assay: Chronic toxicity in female rat assessed as sporadic alterations in organ weight at 60 to 100 mg/kg/day, po administered for 28 days; type: organism-based; conditions: in vivo, 672 h
Rattus norvegicus [26] = assay: Chronic toxicity in male rat assessed as effect on organs at 200 mg/kg/day, po administered for 28 days; type: organism-based; conditions: in vivo, 672 h
Rattus norvegicus [27] = assay: Chronic toxicity in female rat assessed as effect on organs at 60 to 100 mg/kg/day, po administered for 28 days; type: organism-based; conditions: in vivo, 672 h
[28] = Chronic toxicity in po dosed female rat assessed as no observable adverse effect level administered daily for 28 days; type: organism-based; conditions: in vivo
Rattus norvegicus [29] = assay: Chronic toxicity in po dosed male rat assessed as severely toxic dose administered daily for 28 days; type: organism-based; conditions: in vivo, 672 h
Canis familiaris [30] = assay: Chronic toxicity in male dog assessed as increase in soft feces/diarrhea at 100 to 300 mg/kg/day, po administered for 28 days; type: organism-based, Canis lupus familiaris; conditions: in vivo, 672 h
Canis familiaris [31] = assay: Chronic toxicity in male dog assessed as discolored feces at 30 to 300 mg/kg/day, po administered for 28 days; type: organism-based, Canis lupus familiaris; conditions: in vivo, 672 h
Canis familiaris [32] = assay: Chronic toxicity in male dog assessed as mucoid feces at 30 to 300 mg/kg/day, po administered for 28 days; type: organism-based, Canis lupus familiaris; conditions: in vivo, 672 h
Canis familiaris [33] = assay: Chronic toxicity in dog assessed as mortality up to 300 mg/kg/day, po administered for 28 days; type: organism-based, Canis lupus familiaris; conditions: in vivo, 672 h
Canis familiaris [34] = assay: Chronic toxicity in female dog assessed as increase in emesis at 300 mg/kg/day, po administered for 28 days; type: organism-based, Canis lupus familiaris; conditions: in vivo, 672 h
Canis familiaris [35] = assay: Chronic toxicity in female dog assessed as soft feces/diarrhea at 100 to 300 mg/kg/day, po administered for 28 days; type: organism-based, Canis lupus familiaris; conditions: in vivo, 672 h
Canis familiaris [36] = assay: Chronic toxicity in dog assessed as effect on food consumption up to 300 mg/kg/day, po administered for 28 days measured during compound dosing; type: organism-based, Canis lupus familiaris; conditions: in vivo, 672 h
Canis familiaris [37] = assay: Chronic toxicity in dog assessed as ophthalmic lesions up to 300 mg/kg/day, po administered for 28 days; type: organism-based, Canis lupus familiaris; conditions: in vivo, 672 h
Canis familiaris [38] = assay: Chronic toxicity in dog assessed as electrocardiogram changes up to 300 mg/kg/day, po administered for 28 days; type: organism-based, Canis lupus familiaris; conditions: in vivo, 672 h
Canis familiaris [39] = assay: Chronic toxicity in dog assessed as hematological changes up to 300 mg/kg/day, po administered for 28 days measured during compound dosing; type: organism-based, Canis lupus familiaris; conditions: in vivo, 672 h
Canis familiaris [40] = assay: Chronic toxicity in dog assessed as urinalysis parameters up to 300 mg/kg/day, po administered for 28 days measured during compound dosing; type: organism-based, Canis lupus familiaris; conditions: in vivo, 672 h
Canis familiaris [41] = assay: Chronic toxicity in dog assessed as effect on serum troponin 1 levels up to 300 mg/kg/day, po administered for 28 days measured during compound dosing; type: organism-based, Canis lupus familiaris; conditions: in vivo, 672 h
Canis familiaris [42] = assay: Chronic toxicity in dog assessed as histopathological alterations in cardiac tissues up to 300 mg/kg/day, po administered for 28 days; type: organism-based, Canis lupus familiaris; conditions: in vivo, 672 h

With `Cl.S=C(NCc1ccc2c(c1)OCO2)N1CCN(c2ncnc3c2oc2ccccc23)CC1` [AMUVATINIB HYDROCHLORIDE] the solubility [1] was 4000 µg/mL, the Activity (OVCAR-3 [2]) was 113% and the Activity (Mus musculus) was “Toxic”. It also gave an Activity (OVCAR-3 [3]) of 10.22 mm3/day, an inhibition at 0.71 µM (A549 [4]) of 26% and an inhibition at 3.82 µM (A549 [5]) of 42%. It also gave a Cmax [6] of 371 ng/mL, a Tmax [7] of 5 min and a Tmax [8] of 30 to 720 min. For the same compound, the Activity (Rattus norvegicus [9]) was “Non-Toxic”, the Activity (Canis familiaris [10]) was “Non-Toxic” and the Activity (Canis familiaris [11]) was “Non-Toxic”. The Activity (Rattus norvegicus [12]) was “Toxic”, the Activity (Rattus norvegicus [13]) was “Toxic” and the Activity (Rattus norvegicus [14]) was “Toxic”. For the same compound, the Activity (Rattus norvegicus [15]) was “Toxic”, the Activity (Rattus norvegicus [16]) was “Toxic” and the Activity (Rattus norvegicus [17]) was “Toxic”. The Activity (Rattus norvegicus [18]) was “Toxic”, the Activity (Rattus norvegicus [19]) was “Non-Toxic” and the Activity (Rattus norvegicus [20]) was “Non-Toxic”. The Activity (Rattus norvegicus [21]) was “Non-Toxic”, the Activity (Rattus norvegicus [22]) was “Toxic” and the Activity (Rattus norvegicus [23]) was “Toxic”. For the same compound, the Activity (Rattus norvegicus [24]) was “Toxic”, the Activity (Rattus norvegicus [25]) was “Toxic” and the Activity (Rattus norvegicus [26]) was “Non-Toxic”. The Activity (Rattus norvegicus [27]) was “Non-Toxic”, the NOAEL at 672 h [28] was 20 mg/kg/day and the Activity (Rattus norvegicus [29]) was 200 mg/kg/day. For the same compound, the Activity (Canis familiaris [30]) was “Toxic”, the Activity (Canis familiaris [31]) was “Toxic” and the Activity (Canis familiaris [32]) was “Toxic”. For the same compound, the Activity (Canis familiaris [33]) was “Non-Toxic”, the Activity (Canis familiaris [34]) was “Toxic” and the Activity (Canis familiaris [35]) was “Toxic”. For the same compound, the Activity (Canis familiaris [36]) was “Non-Toxic”, the Activity (Canis familiaris [37]) was “Non-Toxic” and the Activity (Canis familiaris [38]) was “Non-Toxic”. For the same compound, the Activity (Canis familiaris [39]) was “Non-Toxic”, the Activity (Canis familiaris [40]) was “Non-Toxic” and the Activity (Canis familiaris [41]) was “Non-Toxic”. For the same compound, the Activity (Canis familiaris [42]) was “Non-Toxic”.
